≈ marks a conversion by molar mass, not a printed value.
What was measured:
[1] = Hydroxyl radical scavenging assay; assay type: biochemical; conditions: mean ± SD (n = 3)
Protocol: The samples were evaluated for hydroxyl radical scavenging activity based on the previously described method.

[2] = Superoxide anion radical scavenging assay (PMS-NADH-NBT); assay type: biochemical; conditions: isolated components (Table 5); mean ± SD (n = 3)
Protocol: Superoxide anion radical (O2^•−) scavenging activity was described earlier with slight changes. […] The reaction was initiated by adding 50 μL of NADH (468 μM) solution to the mixture. After incubating at room temperature for 5 min, the activity of samples was determined by calculating the decrease in absorbance measured at 560 nm by the following equation,
Superoxide anion radical scavenging activity (%) = (A0 − A1)/A0 × 100, where A1 is the absorbance of the test sample and A0 is the absorbance of the control.
IC50 values for the tested activities were determined by linear regression of the percentage of remaining superoxide anion radicals against sample concentration.

[3] = DPPH radical scavenging assay; assay type: biochemical; conditions: mean ± SD (n = 3)
Protocol: The DPPH radical scavenging assay was determined by the reference method.

[4] = ABTS cation radical scavenging assay; assay type: biochemical; conditions: mean ± SD (n = 3)
Protocol: The ABTS cation radical scavenging assay was carried out using the reference method.

α-glucosidase = α-glucosidase (Saccharomyces cerevisiae, UniProt P53341); assay: biochemical
Chain of α-glucosidase (P53341 whole entry): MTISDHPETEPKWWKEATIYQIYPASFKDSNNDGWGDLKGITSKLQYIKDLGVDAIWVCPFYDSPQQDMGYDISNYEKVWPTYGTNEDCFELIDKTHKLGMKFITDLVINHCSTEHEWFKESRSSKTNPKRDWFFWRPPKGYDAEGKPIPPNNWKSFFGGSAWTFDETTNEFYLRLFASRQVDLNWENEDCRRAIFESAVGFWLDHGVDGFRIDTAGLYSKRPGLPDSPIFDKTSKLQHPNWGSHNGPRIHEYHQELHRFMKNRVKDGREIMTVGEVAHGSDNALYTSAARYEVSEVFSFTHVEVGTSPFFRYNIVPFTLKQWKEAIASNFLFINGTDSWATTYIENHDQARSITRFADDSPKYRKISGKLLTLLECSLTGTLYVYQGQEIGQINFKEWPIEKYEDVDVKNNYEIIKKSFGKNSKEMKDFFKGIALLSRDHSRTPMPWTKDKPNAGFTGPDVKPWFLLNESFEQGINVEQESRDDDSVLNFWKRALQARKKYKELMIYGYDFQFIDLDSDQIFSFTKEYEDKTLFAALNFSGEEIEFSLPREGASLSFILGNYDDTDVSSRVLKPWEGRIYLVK
Protocol: α-Glucosidase inhibitory activity was established in accordance with the described method with slight modifications. In brief, 100 μL of different concentrations of the sample, 380 μL of p-nitro-phenyl-α-D-glucopyranoside (p-NPG) (0.53 mM), and 20 μL of α-Glucosidase solution (1 units/mL) were mixed in 0.1 M potassium phosphate buffer (pH 6.8). After incubating at 37 °C for 20 min, 500 μL of sodium carbonate (0.1 M) was added in order to quench the reaction. The anti-α-glucosidase activity of the sample was determined by calculating the decrease in absorbance measured at 405 nm by the following equation,
Inhibition (%) = (A0 − A1)/A0 × 100, where A1 is the absorbance of the test sample and A0 is the absorbance of the control.

Structure (SMILES) | IC50 Hydroxyl ([1]; isolated components (Table 5)) | IC50 Superoxide [2] | IC50 DPPH ([3]; isolated components (Table 5)) | IC50 ABTS ([4]; isolated components (Table 5)) | IC50 Hydroxyl ([1]; solvent extracts (Table 2)) | IC50 DPPH ([3]; solvent extracts (Table 2)) | IC50 ABTS ([4]; solvent extracts (Table 2)) | IC50 (α-glucosidase)
O=c1c(O)c(-c2ccc(O)cc2)oc2cc(O)cc(O)c12 [Kaempferol, kaempferol] | 11.46 ± 5.60 µg/mL (≈ 40 µM) | 541.00 ± 18.47 µg/mL (≈ 1890 µM) | 2.32 ± 0.17 µg/mL (≈ 8.11 µM) | 8.75 ± 0.90 µg/mL (≈ 30.6 µM) | – | – | – | –
Cc1cc(C(C)(C)C)c(O)c(C(C)(C)C)c1 [BHT, Butylated hydroxytoluene, reference compound] | 58.62 ± 2.75 µg/mL (≈ 266 µM) | – | 31.04 ± 2.12 µg/mL (≈ 141 µM) | 19.34 ± 2.18 µg/mL (≈ 87.8 µM) | 65.90 ± 1.23 µg/mL (≈ 299 µM) | 39.88 ± 1.30 µg/mL (≈ 181 µM) | 20.34 ± 1.69 µg/mL (≈ 92.3 µM) | –
O=C(/C=C/c1ccc(O)c(O)c1)O[C@H](Cc1ccc(O)c(O)c1)C(=O)O [Rosmarinic acid, rosmarinic acid] | 6.56 ± 4.77 µg/mL (≈ 18.2 µM) | 61.62 ± 6.43 µg/mL (≈ 171 µM) | 1.87 ± 0.09 µg/mL (≈ 5.19 µM) | 27.11 ± 14.00 µg/mL (≈ 75.2 µM) | – | – | – | 514 µM
COc1cc(/C=C/C(=O)O)ccc1O [trans-Ferulic acid, trans-ferulic acid] | 68.26 ± 65.58 µg/mL (≈ 352 µM) | 541.00 ± 26.95 µg/mL (≈ 2790 µM) | 3.81 ± 0.18 µg/mL (≈ 19.6 µM) | 24.47 ± 16.45 µg/mL (≈ 126 µM) | – | – | – | > 2060 µM
O=C(O)/C=C/c1ccc(O)cc1 [p-Coumaric acid, p-coumaric acid] | 60.70 ± 69.24 µg/mL (≈ 370 µM) | 256.00 ± 16.27 µg/mL (≈ 1560 µM) | 204.13 ± 9.78 µg/mL (≈ 1240 µM) | 27.01 ± 6.12 µg/mL (≈ 165 µM) | – | – | – | > 2440 µM
O=c1c(O)c(-c2ccc(O)c(O)c2)oc2cc(O)cc(O)c12 [Quercetin, quercetin] | 9.75 ± 4.39 µg/mL (≈ 32.3 µM) | 44.08 ± 3.07 µg/mL (≈ 146 µM) | 1.07 ± 0.13 µg/mL (≈ 3.54 µM) | 11.46 ± 1.82 µg/mL (≈ 37.9 µM) | – | – | – | –
O=C(O)/C=C/c1ccc(O)c(O)c1 [Caffeic acid, caffeic acid] | 153.04 ± 85.84 µg/mL (≈ 849 µM) | 57.34 ± 7.44 µg/mL (≈ 318 µM) | 0.81 ± 0.09 µg/mL (≈ 4.5 µM) | 27.85 ± 18.95 µg/mL (≈ 155 µM) | – | – | – | 942 µM

From paper PMC8869629, “Comparison of Various Solvent Extracts and Major Bioactive Components from Portulaca oleracea for Antioxidant, Anti-Tyrosinase, and Anti-α-Glucosidase Activities” (Antioxidants, 2022)
